# The source made the active and inactive calls. The rule behind the calls is not given here.
# What was measured:
# [1] = tested on: Shigella boydii; assay: Antibacterial activity against Shigella boydii type 6 RSKK-96043 at 25 ug after 24 hr by agar well diffusion method; type: functional; details: type 6 RSKK-96043, 24 h, read-out: DIZ
# [2] = tested on: Shigella boydii; assay: Antibacterial activity against Shigella boydii type 16 at 25 ug after 24 hr by agar well diffusion method; type: functional; details: type 16, 24 h, read-out: DIZ
# [3] = tested on: Shigella boydii; assay: Antibacterial activity against Shigella boydii type 11 at 25 ug after 24 hr by agar well diffusion method; type: functional; details: type 11, 24 h, read-out: DIZ
# [4] = tested on: Salmonella typhimurium; assay: Antibacterial activity against Salmonella enterica subsp. enterica serovar Typhi H NCTC 901.8394 at 25 ug after 24 hr by agar well diffusion method; type: functional; details: H NCTC 901.8394, 24 h, read-out: DIZ
# [5] = tested on: Proteus; assay: Antibacterial activity against Proteus OX2 Wrah at 25 ug after 24 hr by agar well diffusion method; type: functional; details: read-out: DIZ
# [6] = tested on: Pseudomonas putida; assay: Antibacterial activity against Pseudomonas putida at 25 ug after 24 hr by agar well diffusion method; type: functional; details: read-out: DIZ
# [7] = tested on: Listeria monocytogenes; assay: Antibacterial activity against Listeria monocytogenes ATCC 19115 at 25 ug after 24 hr by agar well diffusion method; type: functional; details: ATCC 19115, 24 h, read-out: DIZ
# [8] = tested on: Staphylococcus aureus; assay: Antibacterial activity against Staphylococcus aureus ATCC 25923 at 25 ug after 24 hr by agar well diffusion method; type: functional; details: ATCC 25923, 24 h, read-out: DIZ
# [9] = tested on: Escherichia coli; assay: microbe, parasite or virus in culture; details: ATCC 1280, 24 h, read-out: DIZ
# [10] = tested on: Shigella boydii; assay: Antibacterial activity against Shigella boydii type 6 RSKK-96043 at 30 ug after 24 hr by agar well diffusion method; type: functional; details: type 6 RSKK-96043, 24 h, read-out: DIZ
# [11] = tested on: Shigella boydii; assay: Antibacterial activity against Shigella boydii type 16 at 30 ug after 24 hr by agar well diffusion method; type: functional; details: type 16, 24 h, read-out: DIZ
# [12] = tested on: Shigella boydii; assay: Antibacterial activity against Shigella boydii type 11 at 30 ug after 24 hr by agar well diffusion method; type: functional; details: type 11, 24 h, read-out: DIZ
# [13] = tested on: Salmonella typhimurium; assay: Antibacterial activity against Salmonella enterica subsp. enterica serovar Typhi H NCTC 901.8394 at 30 ug after 24 hr by agar well diffusion method; type: functional; details: H NCTC 901.8394, 24 h, read-out: DIZ
# [14] = tested on: Proteus; assay: Antibacterial activity against Proteus OX2 Wrah at 30 ug after 24 hr by agar well diffusion method; type: functional; details: read-out: DIZ
# [15] = tested on: Pseudomonas putida; assay: Antibacterial activity against Pseudomonas putida at 30 ug after 24 hr by agar well diffusion method; type: functional; details: read-out: DIZ
# [16] = tested on: Escherichia coli; assay: Antibacterial activity against Escherichia coli ATCC 1280 at 30 ug after 24 hr by agar well diffusion method; type: functional; details: ATCC 1280, 24 h, read-out: DIZ
# [17] = tested on: Listeria monocytogenes; assay: Antibacterial activity against Listeria monocytogenes ATCC 19115 at 30 ug after 24 hr by agar well diffusion method; type: functional; details: ATCC 19115, 24 h, read-out: DIZ
# [18] = tested on: Staphylococcus aureus; assay: Antibacterial activity against Staphylococcus aureus ATCC 25923 at 30 ug after 24 hr by agar well diffusion method; type: functional; details: ATCC 25923, 24 h, read-out: DIZ
# [19] = tested on: Candida albicans; assay: Antifungal activity against Candida albicans Y-1200-NIH at 0.25 ug/ml after 24 hr by agar well diffusion method; type: functional
# [20] = tested on: Brucella abortus; assay: Antibacterial activity against Brucella abortus RSKK-03026 at 0.25 ug/ml after 24 hr by agar well diffusion method; type: functional
# [21] = tested on: Shigella boydii; assay: Antibacterial activity against Shigella boydii type 6 RSKK-96043 at 0.25 ug/ml after 24 hr by agar well diffusion method; type: functional; details: type 6 RSKK-96043, 24 h, read-out: DIZ
# [22] = tested on: Shigella boydii; assay: Antibacterial activity against Shigella boydii type 16 at 0.25 ug/ml after 24 hr by agar well diffusion method; type: functional; details: type 16, 24 h, read-out: DIZ
# [23] = tested on: Shigella boydii; assay: Antibacterial activity against Shigella boydii type 11 at 0.25 ug/ml after 24 hr by agar well diffusion method; type: functional; details: type 11, 24 h, read-out: DIZ
# [24] = tested on: Salmonella typhimurium; assay: Antibacterial activity against Salmonella enterica subsp. enterica serovar Typhi H NCTC 901.8394 at 0.25 ug/ml after 24 hr by agar well diffusion method; type: functional; details: H NCTC 901.8394, 24 h, read-out: DIZ
# [25] = tested on: Proteus; assay: Antibacterial activity against Proteus OX2 Wrah at 0.25 ug/ml after 24 hr by agar well diffusion method; type: functional
# [26] = tested on: Escherichia coli; assay: Antibacterial activity against Escherichia coli ATCC 1280 at 0.25 ug/ml after 24 hr by agar well diffusion method; type: functional; details: ATCC 1280, 24 h, read-out: DIZ
# [27] = tested on: Pseudomonas putida; assay: Antibacterial activity against Pseudomonas putida at 0.25 ug/ml after 24 hr by agar well diffusion method; type: functional; details: read-out: DIZ
# [28] = tested on: Listeria monocytogenes; assay: Antibacterial activity against Listeria monocytogenes ATCC 19115 at 0.25 ug/ml after 24 hr by agar well diffusion method; type: functional; details: ATCC 19115, 24 h, read-out: DIZ
# [29] = tested on: Staphylococcus aureus; assay: Antibacterial activity against Staphylococcus aureus ATCC 25923 at 0.25 ug/ml after 24 hr by agar well diffusion method; type: functional; details: ATCC 25923, 24 h, read-out: DIZ
# [30] = tested on: Shigella boydii; assay: Antibacterial activity against Shigella boydii type 6 RSKK-96043 at 10 ug after 24 hr by agar well diffusion method; type: functional; details: type 6 RSKK-96043, 24 h, read-out: DIZ
# [31] = tested on: Shigella boydii; assay: Antibacterial activity against Shigella boydii type 16 at 10 ug after 24 hr by agar well diffusion method; type: functional; details: type 16, 24 h, read-out: DIZ
# [32] = tested on: Shigella boydii; assay: Antibacterial activity against Shigella boydii type 11 at 10 ug after 24 hr by agar well diffusion method; type: functional; details: type 11, 24 h, read-out: DIZ
# [33] = tested on: Salmonella typhimurium; assay: Antibacterial activity against Salmonella enterica subsp. enterica serovar Typhi H NCTC 901.8394 at 10 ug after 24 hr by agar well diffusion method; type: functional; details: H NCTC 901.8394, 24 h, read-out: DIZ
# [34] = tested on: Proteus; assay: Antibacterial activity against Proteus OX2 Wrah at 10 ug after 24 hr by agar well diffusion method; type: functional; details: read-out: DIZ
# [35] = tested on: Escherichia coli; assay: Antibacterial activity against Escherichia coli ATCC 1280 at 10 ug after 24 hr by agar well diffusion method; type: functional; details: ATCC 1280, 24 h, read-out: DIZ
# [36] = tested on: Pseudomonas putida; assay: Antibacterial activity against Pseudomonas putida at 10 ug after 24 hr by agar well diffusion method; type: functional; details: read-out: DIZ
# [37] = tested on: Listeria monocytogenes; assay: Antibacterial activity against Listeria monocytogenes ATCC 19115 at 10 ug after 24 hr by agar well diffusion method; type: functional; details: ATCC 19115, 24 h, read-out: DIZ
# [38] = tested on: Staphylococcus aureus; assay: Antibacterial activity against Staphylococcus aureus ATCC 25923 at 10 ug after 24 hr by agar well diffusion method; type: functional; details: ATCC 25923, 24 h, read-out: DIZ
compound,measurement,setting,value
Cc1cc(NS(=O)(=O)c2ccc(N)cc2)no1 [SULFAMETHOXAZOLE],zone of inhibition at 25 µg/disc,[1],20 mm
same,zone of inhibition at 25 µg/disc,[2],20 mm
same,zone of inhibition at 25 µg/disc,[3],19 mm
same,zone of inhibition at 25 µg/disc,[4],17 mm
same,zone of inhibition at 25 µg/disc,[5],20 mm
same,zone of inhibition at 25 µg/disc,[6],18 mm
same,zone of inhibition at 25 µg/disc,[7],11 mm
same,zone of inhibition at 25 µg/disc,[8],24 mm
same,zone of inhibition at 25 µg/disc,[9],18 mm
CC1(C)S[C@@H]2[C@H](NC(=O)[C@H](N)c3ccc(O)cc3)C(=O)N2[C@H]1C(=O)O [AMOXICILLIN],zone of inhibition at 30 µg/disc,[10],19 mm
same,zone of inhibition at 30 µg/disc,[11],14 mm
same,zone of inhibition at 30 µg/disc,[12],24 mm
same,zone of inhibition at 30 µg/disc,[13],19 mm
same,zone of inhibition at 30 µg/disc,[14],17 mm
same,zone of inhibition at 30 µg/disc,[15],15 mm
same,zone of inhibition at 30 µg/disc,[16],14 mm
same,zone of inhibition at 30 µg/disc,[17],22 mm
same,zone of inhibition at 30 µg/disc,[18],30 mm
CCOC(=O)c1c(/N=C/c2c(O)ccc3ccccc23)sc2c1CCCC2,diameter of the inhibition zone (DIZ),[19],inactive
same,diameter of the inhibition zone (DIZ),[20],inactive
same,zone of inhibition at 0.25 µg/mL,[21],7 mm
same,zone of inhibition at 0.25 µg/mL,[22],8 mm
same,zone of inhibition at 0.25 µg/mL,[23],7 mm
same,zone of inhibition at 0.25 µg/mL,[24],7 mm
same,diameter of the inhibition zone (DIZ),[25],inactive
same,zone of inhibition at 0.25 µg/mL,[26],6 mm
same,zone of inhibition at 0.25 µg/mL,[27],7 mm
same,zone of inhibition at 0.25 µg/mL,[28],9 mm
same,zone of inhibition at 0.25 µg/mL,[29],9 mm
CC1(C)S[C@@H]2[C@H](NC(=O)[C@H](N)c3ccccc3)C(=O)N2[C@H]1C(=O)O [AMPICILLIN],zone of inhibition at 10 µg/disc,[30],6 mm
same,zone of inhibition at 10 µg/disc,[31],16 mm
same,zone of inhibition at 10 µg/disc,[32],20 mm
same,zone of inhibition at 10 µg/disc,[33],11 mm
same,zone of inhibition at 10 µg/disc,[34],9 mm
same,zone of inhibition at 10 µg/disc,[35],10 mm
same,zone of inhibition at 10 µg/disc,[36],8 mm
same,zone of inhibition at 10 µg/disc,[37],16 mm
same,zone of inhibition at 10 µg/disc,[38],30 mm

# Source: ChEMBL document CHEMBL3046942, “Synthesis and biological activity of new cycloalkylthiophene-Schiff bases and their Cr(III) and Zn(II) complexes” (2010)
